Laboratory results: patent US4861788A, “Antibacterial 1-normon-2-yl-heterocyclic compounds” (Beecham Group plc, priority 1983, dated 1989)
≈ marks a conversion by molar mass, not a printed value.

Legend:
M. hyopneumoniae Str. 11 = experiment: MIC against Mycoplasma in vitro (Friis broth with agarose); assay type: cell-based; settings: Mesomycoplasma hyopneumoniae, 144 h; M. hyopneumoniae Str. 11; 6 days at 37° C; read-out: MIC
M. hyopneumoniae MS 16 = experiment: as above; assay type: cell-based; settings: Mesomycoplasma hyopneumoniae, MS16, 144 h; M. hyopneumoniae MS 16; 6 days at 37° C; read-out: MIC
M. hyopneumoniae TAM 6N = experiment: as above; assay type: cell-based; settings: Mesomycoplasma hyopneumoniae, TAM6N, 144 h; M. hyopneumoniae TAM 6N; 6 days at 37° C; read-out: MIC
[1] = system: M. hyopneumoniae ATCC 25095; experiment: as above; assay type: cell-based; settings: Mesomycoplasma hyopneumoniae, ATCC25095, 144 h; M. hyopneumoniae ATCC 25095; 6 days at 37° C; read-out: MIC
M. hyorhinis ATCC 25021 = experiment: as above; assay type: cell-based; settings: Mesomycoplasma hyorhinis, ATCC25021, 144 h; M. hyorhinis ATCC 25021; 6 days at 37° C; read-out: MIC
M. bovis NCTC 10131 = experiment: microbe, parasite or virus in culture; assay type: cell-based; settings: NCTC10131, 144 h
[2] = system: M. bovigenitalium ATCC 14173; experiment: MIC against Mycoplasma in vitro (Friis broth with agarose); assay type: cell-based; settings: 144 h
M. gallisepticum S6 = experiment: as above; assay type: cell-based; settings: Mycoplasmoides gallisepticum, 144 h; M. gallisepticum S6; 6 days at 37° C; read-out: MIC
Bacillus subtilis 6633 = experiment: MIC against human bacteria in vitro (nutrient agar, chocolated horse blood); assay type: cell-based; settings: human; Bacillus subtilis 6633; 18 hours at 37° C; read-out: MIC
Summary of the method: (§1)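 Agar dilution series; medium supplemented with 5% chocolated horse blood; MIC taken from the dilution series.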

[3] = system: Corynebacterium xerosis 9755; experiment: as above; assay type: cell-based; settings: human; Corynebacterium xerosis 9755; 18 hours at 37° C; read-out: MIC
Summary of the method: as §1

E. coli ESS = experiment: as above; assay type: cell-based; settings: Escherichia coli; human; E. coli ESS; 18 hours at 37° C; read-out: MIC
Summary of the method: as §1

E. coli NCTC 10418 = experiment: as above; assay type: cell-based; settings: Escherichia coli, NCTC10418; human; E. coli NCTC 10418; 18 hours at 37° C; read-out: MIC
Summary of the method: as §1

[4] = system: Haemophilus influenzae Wy21; experiment: as above; assay type: cell-based; settings: human; Haemophilus influenzae Wy21; 18 hours at 37° C; read-out: MIC
Summary of the method: as §1

K. aerogenes A = experiment: as above; assay type: cell-based; settings: Klebsiella aerogenes; human; K. aerogenes A; 18 hours at 37° C; read-out: MIC
Summary of the method: as §1

P. mirabilis 889 = experiment: as above; assay type: cell-based; settings: Proteus mirabilis; human; P. mirabilis 889; 18 hours at 37° C; read-out: MIC
Summary of the method: as §1

[5] = system: Pasteurella multocida 1633; experiment: as above; assay type: cell-based; settings: human; Pasteurella multocida 1633; 18 hours at 37° C; read-out: MIC
Summary of the method: as §1

[6] = system: Ps. aeruginosa NCTC 10662; experiment: as above; assay type: cell-based; settings: Pseudomonas aeruginosa, NCTC10662; human; Ps. aeruginosa NCTC 10662; 18 hours at 37° C; read-out: MIC
Summary of the method: as §1

Sarcina lutea 8340 = experiment: as above; assay type: cell-based; settings: Micrococcus luteus; human; Sarcina lutea 8340; 18 hours at 37° C; read-out: MIC
Summary of the method: as §1

Staph. aureus Oxford = experiment: as above; assay type: cell-based; settings: Staphylococcus aureus; human; Staph. aureus Oxford; 18 hours at 37° C; read-out: MIC
Summary of the method: as §1

Staph. aureus Russell = experiment: as above; assay type: cell-based; settings: Staphylococcus aureus; human; Staph. aureus Russell; 18 hours at 37° C; read-out: MIC
Summary of the method: as §1

Staph. aureus W2827 = experiment: as above; assay type: cell-based; settings: Staphylococcus aureus; human; Staph. aureus W2827; 18 hours at 37° C; read-out: MIC
Summary of the method: as §1

Strep. agalactiae 2788-B = experiment: as above; assay type: cell-based; settings: Streptococcus agalactiae; human; Strep. agalactiae 2788-B; 18 hours at 37° C; read-out: MIC
Summary of the method: as §1

Strep. faecalis I = experiment: as above; assay type: cell-based; settings: Enterococcus faecalis; human; Strep. faecalis I; 18 hours at 37° C; read-out: MIC
Summary of the method: as §1

[7] = system: Strep. pyogenes R80/421-A; experiment: as above; assay type: cell-based; settings: Streptococcus pyogenes; human; Strep. pyogenes R80/421-A; 18 hours at 37° C; read-out: MIC
Summary of the method: as §1

Strep. spp. 64/848-C = experiment: as above; assay type: cell-based; settings: human; Strep. spp. 64/848-C; 18 hours at 37° C; read-out: MIC
Summary of the method: as §1

Bord. bronchiseptica B09 = experiment: MIC against veterinary bacteria in vitro (Diagnostic Sensitivity Test Agar); settings: Bordetella bronchiseptica, B09, 18 h
Protocol: (§2) The activity of the normonyl derivatives of the Examples against various veterinarily important bacteria, was assayed in vitro using two-fold serial dilutions in Diagnostic Sensitivity Test Agar inoculated with 10^4 organisms.

Past. haemolytica PA5 = experiment: as above; settings: Mannheimia haemolytica, PA5, 18 h
Protocol: as §2

[8] = system: Erysipelothrix rhusiopathiae NCTC 8163; experiment: as above; settings: NCTC8163, 18 h
Protocol: as §2

[9] = system: Staph. aureus B4 (pen. resistant); experiment: as above; settings: Staphylococcus aureus, 18 h
Protocol: as §2

[10] = system: Staph. aureus 152 (pen. sens); experiment: as above; settings: Staphylococcus aureus, 18 h
Protocol: as §2

[11] = system: Strep. suis (group D) SPS11; experiment: as above; settings: Streptococcus suis, 18 h
Protocol: as §2

Strep. dysgalactiae SPD1 = experiment: as above; settings: Streptococcus dysgalactiae, SPD1, 18 h
Protocol: as §2

Strep. agalactiae SPA1 = experiment: as above; settings: Streptococcus agalactiae, SPA1, 18 h
Protocol: as §2

Molecule `CC(=Cc1noc(-c2ccccc2)n1)CC1OCC(CC2OC2C(C)C(C)O)C(O)C1O` (stereo not drawn) [Example 17, 3-(1-Normon-2-yl)-5-phenyl-1,2,4-oxadiazole] has an MIC (M. hyopneumoniae Str. 11) of 1 µg/mL (≈ 2.25 µM), an MIC (M. hyopneumoniae MS 16) of 1 µg/mL (≈ 2.25 µM) and an MIC (M. hyopneumoniae TAM 6N) of 2.5 µg/mL (≈ 5.62 µM). The MIC [1] was 1 µg/mL (≈ 2.25 µM), the MIC (M. hyorhinis ATCC 25021) was 2.5 µg/mL (≈ 5.62 µM) and the MIC (M. bovis NCTC 10131) was 0.05 µg/mL (≈ 0.112 µM). It also gave an MIC [2] of 0.1 µg/mL (≈ 0.225 µM), an MIC (M. gallisepticum S6) of 10 µg/mL (≈ 22.5 µM) and an MIC (Bacillus subtilis 6633) of 2 µg/mL (≈ 4.5 µM). The MIC [3] was > 128 µg/mL, the MIC (E. coli ESS) was 4 µg/mL (≈ 9 µM) and the MIC (E. coli NCTC 10418) was > 128 µg/mL. The MIC [4] was 1 µg/mL (≈ 2.25 µM), the MIC (K. aerogenes A) was > 128 µg/mL and the MIC (P. mirabilis 889) was > 128 µg/mL. For the same molecule, the MIC [5] was 16 µg/mL (≈ 36 µM), the MIC [6] was > 128 µg/mL and the MIC (Sarcina lutea 8340) was > 128 µg/mL. For the same molecule, the MIC (Staph. aureus Oxford) was 4 µg/mL (≈ 9 µM), the MIC (Staph. aureus Russell) was 4 µg/mL (≈ 9 µM) and the MIC (Staph. aureus W2827) was 4 µg/mL (≈ 9 µM). The MIC (Strep. agalactiae 2788-B) was 8 µg/mL (≈ 18 µM), the MIC (Strep. faecalis I) was > 128 µg/mL and the MIC [7] was 4 µg/mL (≈ 9 µM). The MIC (Strep. spp. 64/848-C) was 8 µg/mL (≈ 18 µM), the MIC (Bord. bronchiseptica B09) was 40 µg/mL (≈ 90 µM) and the MIC (Past. haemolytica PA5) was 80 µg/mL (≈ 180 µM). The MIC [8] was 10 µg/mL (≈ 22.5 µM), the MIC [9] was 1.25 µg/mL (≈ 2.81 µM) and the MIC [10] was 1.25 µg/mL (≈ 2.81 µM). The MIC [11] was 20 µg/mL (≈ 45 µM), the MIC (Strep. dysgalactiae SPD1) was 2.5 µg/mL (≈ 5.62 µM) and the MIC (Strep. agalactiae SPA1) was 5 µg/mL (≈ 11.2 µM).
